Where two headings read alike, the source gives them in different places.
Assays:
[1] = biological target: T1, BipA (TypA or YihK) (Escherichia coli, UniProt P0DTT0); experiment: isothermal titration calorimetry; crystal structure […] A; type: binding; conditions: read-out: Ka (converted)
[2] = biological target: T1, BipA (TypA or YihK); experiment: as above; type: binding

T1 sequence (P0DTT0 whole entry): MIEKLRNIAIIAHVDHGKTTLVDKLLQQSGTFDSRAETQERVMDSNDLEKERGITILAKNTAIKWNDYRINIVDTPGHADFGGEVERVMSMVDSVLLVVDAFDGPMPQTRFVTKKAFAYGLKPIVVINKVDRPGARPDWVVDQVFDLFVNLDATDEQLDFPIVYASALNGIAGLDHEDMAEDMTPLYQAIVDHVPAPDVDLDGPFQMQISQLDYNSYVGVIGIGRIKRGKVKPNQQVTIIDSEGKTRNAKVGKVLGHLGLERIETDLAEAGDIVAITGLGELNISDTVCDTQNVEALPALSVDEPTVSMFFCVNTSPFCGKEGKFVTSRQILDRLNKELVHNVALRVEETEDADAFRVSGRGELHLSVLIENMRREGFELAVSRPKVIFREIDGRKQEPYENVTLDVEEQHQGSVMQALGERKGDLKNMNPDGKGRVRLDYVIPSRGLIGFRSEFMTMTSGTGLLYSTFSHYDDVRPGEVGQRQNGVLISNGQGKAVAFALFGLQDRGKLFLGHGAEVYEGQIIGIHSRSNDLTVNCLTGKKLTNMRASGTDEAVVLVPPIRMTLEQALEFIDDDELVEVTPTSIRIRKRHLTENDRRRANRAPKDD

Compound | Kd [1] | Kd [2]
Nc1nc2c(ncn2[C@@H]2O[C@H](COP(=O)(O)OP(=O)(O)O)[C@@H](O)[C@H]2O)c(=O)[nH]1 [GDP] | 14.5 µM | 
Nc1nc2c(ncn2[C@@H]2O[C@H](COP(=O)(O)OP(=O)(O)O)[C@@H](OP(=O)(O)OP(=O)(O)O)[C@H]2O)c(=O)[nH]1 [ppGpp, guanosine-3′, 5′-bis pyrophosphate] |  | 41.7 µM

From article PMC4543647, “Structural and Functional Analysis of BipA, a Regulator of Virulence in Enteropathogenic Escherichia coli” (The Journal of Biological Chemistry, 2015)
